Experimental data: patent publication US8633005B2, “Isocyclomaltooligosaccharide(s), isocyclomaltooligosaccharide-forming enzyme, their preparation and uses” (Hayashibara Co., Ltd., priority 2004, dated 2014)
Where two headings read alike, the source gives them in different places.

Experiments:
[1] = Amino-carbonyl reaction with glycine; type: physicochemical; conditions: 5% (w/v) saccharide + 1% (w/v) glycine, pH 7.0, 120° C., blank subtracted
Experimental: ICG5, used in Experiment 15 and commercially available super high-grade glycine were dissolved in deionized water, and then admixed with phosphate buffer to make into an aqueous ICG5 solution containing 5% (w/v) of ICG5 and 1% (w/v) glycine, adjusted to pH 7.0. As a control, an aqueous α-cyclodextrin (α-CD) solution containing α-CD and glycine was prepared in the same manner using α-CD in place of ICG5. Four milliliters each of the solution was put in a glass tube, sealed and then heated at 120° C. for 30, 60, or 90 min. After cooling the solutions in ambient temperature, the degrees of coloring of the solutions were measured to estimate the degree of amino-carbonyl reaction. As a blank test, a solution containing glycine only was heated in the same manner. The degree of coloring was defined as an absorbance at 480 nm using a 1 cm-cell after subtracting the absorbance of the blank test.

[2] = Amino-carbonyl reaction with polypeptone; type: physicochemical; conditions: with 5% (w/v) polypeptone, 120° C., blank subtracted
Experimental: ICG5 used in Experiment 15 and commercially available polypeptone, commercialized by Nihon Pharmaceutical Co., Ltd., Tokyo, Japan, were dissolved in deionized water to make into an aqueous solution containing […] and 5% (w/v) of polypeptone. As a control, an aqueous solution containing α-CD and polypeptone was prepared in the same manner using α-CD in place of ICG5. Four milliliters each of the solution was put in a glass tube, sealed and then heated at 120° C. for 30, 60, or 90 min. After cooling the solutions in ambient temperature, the degrees of coloring of the solutions were measured to estimate the degree of amino-carbonyl reaction. As a blank test, a solution containing polypeptone only was heated in the same manner. The degree of coloring was defined as an absorbance at 480 nm using a 1 cm-cell after subtracting the absorbance of the blank test.

[3] = Clathrating action of ICM (amount of compound clathrated, gas-chromatography); type: physicochemical; conditions: 3-folds molar amount
Experimental: ICG5 used in Experiment 15, was dissolved in deionized water to make into an aqueous solution containing 20% (w/v) of ICG5. Twenty milliliters of the aqueous solution was admixed with 3-folds amount, on a molar basis to ICG5, of either of four kinds of short chain alcohols, i.e., methanol, ethanol, propanol, and butanol; four kinds of short chain fatty acids, i.e., acetic acid, propionic acid, n-butyric acid, and n-valeic acid; and four kinds of aromatic compounds, i.e., benzyl alcohol, phenethyl alcohol, 4-phenyl-1-propanol, and o-cresol; and then stirred the mixture to homogeneity for allowing ICG5 to clathrate the compound. Successively, each solution was filtrated, and the resulting filtrate was freeze-dried to remove unclathrated compound. In order to measure the amount of compound clathrated in the freeze-dried product, the amount of each compound in each freeze-dried product was determined by gas-chromatography. Alpha-CD was used as a control and subjected to the similar test.

ICM-forming enzyme = test: Action on various saccharides (substrate specificity, TLC); type: biochemical, Bacillus circulans AM7; parameters: key: −: Not changed; +: Spot of substrate is slightly decreased and the formation of ICM are detected; ++: Spot of substrate is markedly decreased and the formation of ICM are detected; +++: Spot of substrate is virtually disappeared and the formation of ICM are detected; conditions: substrate 2% (w/v), one unit/g-substrate enzyme, 40° C., pH 6.0, 24 hours
Experimental: Substrate specificity of ICM-forming enzyme was investigated using various saccharides as substrates. Substrate solutions were prepared by dissolving maltose, maltotriose, maltotetraose, maltopentaose, maltohexaose, maltoheptaose, neotrehalose, trehalose, kojibiose, nigerose, isomaltose, isomaltotriose, panose, isopanose, maltitol, maltotriitol, α-, β-, or γ-cyclodextrin, amylose, soluble starch, glycogen, pullulan or dextran in water. Each substrate solution was admixed with acetate buffer (pH 6.0) and CaCl2 to give final concentrations of 20 mM and 1 mM, respectively. […] Substrate concentration was set to 2% (w/v) and followed by the enzyme reaction at 40° C. and pH 6.0 for 24 hours. To examine the saccharides in each mixture before and after the reaction, saccharides were separated by silica gel thin-layer chromatography (hereinafter, simply abbreviated as “TLC”) using “KIESELGEL 60”, a TLC aluminum plate (10×20 cm) and a solvent (n-butanol/pyridine/water, volume ratio of 6:4:1) and two-times ascending method. The separated saccharides on the plate were detected by visualizing the spots with sulfate-methanol method. By the above TLC analyses, the enzymatic action and the degree of the reaction of ICM-forming enzyme on each substrate were confirmed.

small intestinal enzymes [4] = test system: small intestinal enzymes
From the text: (§1) 43, 23-29 (1990), the digestibility of ICM by salivary α-amylase, artificial gastric juice, pancreas amylase, and small intestinal enzymes were investigated using ICG5, used in Experiment 15. […] In Table 18, the digestion (%) means a value calculated by the formula: Digestion (%)=(The amount of reducing saccharides/The amount of the total saccharides)×100 , in respective reaction described above.

salivary α-amylase = target: T1, salivary α-amylase (Homo sapiens, UniProt P0DUB6); test: Digestibility of ICM by salivary α-amylase; conditions: reducing saccharides/total saccharides x100
T1 sequence (P0DUB6 16-511): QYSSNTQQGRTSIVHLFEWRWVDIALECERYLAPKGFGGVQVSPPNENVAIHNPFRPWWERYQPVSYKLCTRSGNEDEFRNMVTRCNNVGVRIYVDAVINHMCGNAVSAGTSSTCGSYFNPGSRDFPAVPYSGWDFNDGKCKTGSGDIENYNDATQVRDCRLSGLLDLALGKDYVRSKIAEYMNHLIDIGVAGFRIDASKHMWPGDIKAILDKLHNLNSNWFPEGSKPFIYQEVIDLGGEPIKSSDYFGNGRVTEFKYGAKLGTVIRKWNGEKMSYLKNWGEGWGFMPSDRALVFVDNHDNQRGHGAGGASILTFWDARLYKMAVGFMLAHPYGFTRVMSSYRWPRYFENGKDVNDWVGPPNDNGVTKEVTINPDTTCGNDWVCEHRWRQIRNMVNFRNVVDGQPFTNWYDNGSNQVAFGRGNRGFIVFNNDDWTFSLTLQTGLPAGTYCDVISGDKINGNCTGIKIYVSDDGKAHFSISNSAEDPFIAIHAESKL
From the text: as §1

pancreas α-amylase = test: Digestibility of ICM by pancreas α-amylase; conditions: reducing saccharides/total saccharides x100
From the text: as §1

[5] = Digestibility of ICM by artificial gastric juice; conditions: reducing saccharides/total saccharides x100
From the text: as §1

small intestinal enzymes [6] = test: Digestibility of ICM by small intestinal enzymes; conditions: reducing saccharides/total saccharides x100
From the text: as §1

OC[C@H]1O[C@@H]2O[C@H]3[C@H](O)[C@@H](O)[C@@H](O[C@H]4[C@H](O)[C@@H](O)[C@@H](O[C@H]5[C@H](O)[C@@H](O)[C@@H](O[C@H]6[C@H](O)[C@@H](O)[C@@H](O[C@H]7[C@H](O)[C@@H](O)[C@@H](O[C@H]1[C@H](O)[C@H]2O)O[C@@H]7CO)O[C@@H]6CO)O[C@@H]5CO)O[C@@H]4CO)O[C@@H]3CO [α-CD, α-cyclodextrin]
Degree of coloring ([1]; heating time 0 min): 0.02 A480 nm
Degree of coloring ([1]; heating time 30 min): 0.02 A480 nm
Degree of coloring ([1]; heating time 60 min): 0.03 A480 nm
Degree of coloring ([1]; heating time 90 min): 0.02 A480 nm
Degree of coloring ([2]; heating time 0 min): 0.01 A480 nm
Degree of coloring ([2]; heating time 30 min): 0.03 A480 nm
Degree of coloring ([2]; heating time 60 min): 0.04 A480 nm
Degree of coloring ([2]; heating time 90 min): 0.06 A480 nm
Amount of compound clathrated ([3]; objective compound: 4-Phenyl 1-propanol (aromatic compound)): 171.5 mg/g-freeze-dried product
Amount of compound clathrated ([3]; objective compound: Acetic acid (short chain fatty acid)): 15.1 mg/g-freeze-dried product
Amount of compound clathrated ([3]; objective compound: Benzyl alcohol (aromatic compound)): 165.7 mg/g-freeze-dried product
Amount of compound clathrated ([3]; objective compound: Butanol (short chain alcohol)): 79.5 mg/g-freeze-dried product
Amount of compound clathrated ([3]; objective compound: Ethanol (short chain alcohol)): 36.7 mg/g-freeze-dried product
Amount of compound clathrated ([3]; objective compound: Methanol (short chain alcohol)): 16.7 mg/g-freeze-dried product
Amount of compound clathrated ([3]; objective compound: Phenethyl alcohol (aromatic compound)): 144.4 mg/g-freeze-dried product
Amount of compound clathrated ([3]; objective compound: Propanol (short chain alcohol)): 66.8 mg/g-freeze-dried product
Amount of compound clathrated ([3]; objective compound: Propionic acid (short chain fatty acid)): 16.6 mg/g-freeze-dried product
Amount of compound clathrated ([3]; objective compound: n-Butyric acid (short chain fatty acid)): 13.2 mg/g-freeze-dried product
Amount of compound clathrated ([3]; objective compound: n-Valeic acid (short chain fatty acid)): 45.0 mg/g-freeze-dried product
Amount of compound clathrated ([3]; objective compound: o-Cresol (aromatic compound)): 49.5 mg/g-freeze-dried product
Action (ICM-forming enzyme): −
Digestion (small intestinal enzymes [4]): 0.2%
Digestion (salivary α-amylase): 0%
Digestion (pancreas α-amylase): 0%

OC[C@H]1O[C@@H]2O[C@H]3[C@H](O)[C@@H](O)[C@@H](O[C@H]4[C@H](O)[C@@H](O)[C@@H](O[C@H]5[C@H](O)[C@@H](O)[C@@H](O[C@H]6[C@H](O)[C@@H](O)[C@@H](O[C@H]7[C@H](O)[C@@H](O)[C@@H](O[C@H]8[C@H](O)[C@@H](O)[C@@H](O[C@H]1[C@H](O)[C@H]2O)O[C@@H]8CO)O[C@@H]7CO)O[C@@H]6CO)O[C@@H]5CO)O[C@@H]4CO)O[C@@H]3CO [β-CD, β-cyclodextrin]
Action (ICM-forming enzyme): −
Digestion (salivary α-amylase): 0%
Digestion (pancreas α-amylase): 0.2%
Digestion [5]: 0%
Digestion (small intestinal enzymes [6]): 1.1%

OC[C@H]1O[C@@H]2O[C@H]3[C@H](O)[C@@H](O)[C@@H](O[C@H]4[C@H](O)[C@@H](O)[C@@H](O[C@H]5[C@H](O)[C@@H](O)[C@@H](O[C@H]6[C@H](O)[C@@H](O)[C@@H](O[C@H]7[C@H](O)[C@@H](O)[C@@H](O[C@H]8[C@H](O)[C@@H](O)[C@@H](O[C@H]9[C@H](O)[C@@H](O)[C@@H](O[C@H]1[C@H](O)[C@H]2O)O[C@@H]9CO)O[C@@H]8CO)O[C@@H]7CO)O[C@@H]6CO)O[C@@H]5CO)O[C@@H]4CO)O[C@@H]3CO [γ-CD, γ-cyclodextrin]
Action (ICM-forming enzyme): −
Digestion (salivary α-amylase): 0.1%
Digestion (pancreas α-amylase): 5.4%
Digestion [5]: 0%
Digestion (small intestinal enzymes [6]): 57.4%
